Test results taken from US9757408B2 (Hayashibara Co., Ltd., priority 2010, dated 2017).
Where two headings read alike, the source gives them in different places. Marks after values point to notes of the source that are not given here.

Key:
[1] = mouse, in vivo
Description: (§2) The eight mice in each five groups were sensitized (may be simply called “sensitization”, hereinafter) with picryl chloride (Tokyo Chemical Industry Co., Ltd., Tokyo, Japan) in such a manner of dropping a solution, which had been dissolved in a mixture solution of ethanol and acetone in a volume ratio of 4:1 at a concentration of 5%, on the shaved abdominal skin of the mice and on four footpads in a total volume of 150 μL/mouse, and spreading the solution over the abdominal skin and the foot pads by using a micropipette similarly as above.
(§3) Throughout the test period, the mice were weighed once a week. The judgement of the conditions of skin inflammation was conducted twice a week every Tuesday and Friday from the 3rd induction for the degrees of four items of red flare/bleeding, edema (swelling of earflap), chafing/loss of tissue, and the formation of scar tissue/drying, and scored based on the criterion of four grades shown in Table 17; “0” (symptomless), “1” (mild), “2” (moderate), and “3” (severe). The total scores of each evaluation items for each group were averaged for use as a skin score.

[2] = test system: IL-6 in serum of mice administered with LPS; assay: Serum IL-6 in LPS-administered mice, oral administration (Experiment 11); type: in vivo, BALB/c mice; settings: LPS 18 mg/kg i.p., serum 90 min after LPS
Description: (§1) The seven mice in another one group were orally administered through a gastric tube with 3′-glucosyl-adenosine N1-oxide, which had been dissolved in PBS, at a dose of 200 mg/kg body weight in a liquid volume of 0.2 mL/head (Experiment group 4). The seven mice in the remaining one group were orally administered through a gastric tube with PBS in a liquid volume of 0.2 mL/head (Experiment group 1). All the mice were intraperitoneally administered with an LPS specimen derived from E. coli (055:B5), commercialized by Sigma-Aldrich Corporation, St. Louis, Mo. USA, which had been dissolved in PBS, at a dose of 18 mg/kg body weight (Experiment groups 1 to 4). For each group, the mice were collected blood from their tail veins at 90 min after administering LPS, followed by assaying the concentrations of TNF-α, IL-6, and IL-10 contained in serum by the same method as in […].

[3] = test system: TNF-α production from mouse intraperitoneal macrophages; assay: TNF-α production from mouse intraperitoneal macrophages, LPS + IFN-γ, ELISA (Experiment 2); type: cell-based; settings: for TNF-α Concentration: LPS 2 μg/mL, IFN-γ 10 IU/mL
Description: The resulting cell suspension was added to a dish for tissue culture (product code: 353003, commercialized by Becton Drive Franklin Lakes, N.J., USA), and incubated in a 5% v/v CO2 incubator at 37° C. for 1.5 hours to attach the peritoneal exudate macrophages on the surface of the dish.
TNF-α in each collected supernatant was assayed with enzyme-linked immunosorbent assay (ELISA) (Experiment groups 2 to 5). […] The results are in Table 2 in parallel. The test for each Experiment group was conducted by using three wells. The assay for TNF-α was conducted on an ELISA using a commercialized rat anti-mouse TNF-α antibody (“Rat anti-mouse/rat TNF antibody” (product code: 551225), a product name of Becton Drive Franklin Lakes, N.J., USA) as a solid phase antibody; a commercialized biotin-labeled rat anti-mouse TNF-α antibody (“Biotin-Labeled Rat Anti-Mouse TNF Antibody”, product code: 554415, commercialized by Becton Drive Franklin Lakes, N.J., USA) as a secondary antibody; and an HRPO-labeled streptavidin.

BALB/c mice = assay: Safeness of injection preparations, i.v. once a day for seven days (Example 2); type: in vivo; settings: mouse, in vivo, iv
Description: The safeness of the preparations prepared in the above was evaluated.

[4] = test system: skin of volunteers irradiated with ultraviolet rays; assay: Volunteer test of creams: pigmentation (visual score, melanin index) after ultraviolet rays; type: in vivo, human; settings: cream thrice a day for 28 days
Description: Melanin index was measured on “CM-700d”, a spectrophotometer commercialized by Konica Minolta Holdings, Inc., Tokyo, Japan.
In was confirmed that there were no spots and wounds in the inside of the left upper arm in each volunteer. On the day of initiating the test, four sites in the test part of each volunteer were irradiated with 1.5-times of the minimum erythemogenic dose of ultraviolet rays (UVB). The area of the irradiated site was in the range of 1×1 cm applied with each test sample. […]
From the day of initiating the irradiation of ultraviolet rays until seven days after the initiation, the test parts were visually observed and photographed by a digital camera every day, and the day, on which the erythema in the part irradiated with ultraviolet rays become unobserved, was confirmed and the days until the unobserved day for each creams were averaged and shown in Table 26. At 24 hours after the irradiation of ultraviolet rays, the degree of erythema in the part applied with each cream was scored based on the three grades of “strong (2)”, “no difference (0)”, and “weak (−2)” compared to the part applied with Cream 3, summed up the scores for each cream, and averaged. […] On 28 days after initiating the irradiation of ultraviolet rays, visual judgement on the part irradiated with ultraviolet rays and the melanin index were measured to confirm the degree of pigmentation. […]

[5] = test system: TNF-α in serum of mice administered with LPS; assay: Serum TNF-α in LPS-administered mice, oral administration (Experiment 11); type: in vivo, BALB/c mice; settings: LPS 18 mg/kg i.p., serum 90 min after LPS
Description: as §1

[6] = test system: lipopolysaccharide (LPS)-induced endotoxin shock mice; assay: LPS-induced endotoxin shock mice, survival, ANO i.v. simultaneously with LPS (Experiment 1); type: in vivo, BALB/c mice; settings: LPS 15 mg/kg i.p.; for Survival rate (%) of mice, 7 Hours: 7 hours after LPS; for Survival rate (%) of mice, 19 Hours: 19 hours after LPS; for Survival rate (%) of mice, 26 Hours: 26 hours after LPS; for Survival rate (%) of mice, 43 Hours: 43 hours after LPS
Description: USA, which had been dissolved in phosphate buffered saline (PBS) (Experiment groups 1 to 3). […] To the remaining five heads of another one group were intravenously administered with 0.2 mL/head of PBS simultaneously with the LPS administration (Experiment group 1). For each group, the survival number of mice was macroscopically observed up to 7 to 43 hours after the LPS administration, and based on this, the survival rate was determined for each group. The survival rate (%) of mice for each group was calculated by dividing the survival number of mice at each observation time with the survival number of mice at the initiation of this experiment, and multiplying the obtained value by 100.

[7] = Body weight of picryl chloride-sensitized mice applied with gels (Experiment 16); settings: picryl chloride-sensitized NC/Nga mice, throughout the test period
Description: as §2, §3

Nc1ncnc2c1ncn2[C@@H]1O[C@H](CO)[C@@H](O)[C@H]1O [AN, adenosine]
body weight of mice applied with the gel [1]: reduction of increasing rate of their body weights

Nc1c2ncn([C@@H]3O[C@H](CO)[C@@H](O)[C@H]3O)c2nc[n+]1[O-] [ANO, adenosine N1-oxide]
Amount of IL-6 ([2]; oral 100 mg/kg): 17.5 ng/mL | Amount of IL-6 ([2]; oral 200 mg/kg): 16.0* ng/mL | TNF-α Concentration ([3]; ANO 0.006 μM): 1573 pg/mL | TNF-α Concentration ([3]; ANO 0.031 μM): 1637 pg/mL | TNF-α Concentration ([3]; ANO 0.063 μM): 1136 pg/mL | TNF-α Concentration ([3]; ANO 0.313 μM): 545 pg/mL | concentration range in which the production of TNF-α was significantly inhibited ([3]; mouse intraperitoneal macrophages, LPS and IFN-γ): ≥ 0.063 µM | change in body weight and other appearance versus PBS (BALB/c mice): no significant change | clinical laboratory test results that provide indices of renal and liver functions versus PBS (BALB/c mice): no difference | safeness when applied to the skin (red flare, eczema) [4]: induced no red flare, eczema, etc. | Amount of TNF-α ([5]; oral 100 mg/kg): 1339 pg/mL | Amount of TNF-α ([5]; oral 200 mg/kg): 874* pg/mL | Survival rate (%) of mice, 7 Hours ([6]; ANO 15 mg/kg body weight i.v.): 100% | Survival rate (%) of mice, 19 Hours ([6]; ANO 15 mg/kg body weight i.v.): 100% | Survival rate (%) of mice, 26 Hours ([6]; ANO 15 mg/kg body weight i.v.): 80% | Survival rate (%) of mice, 43 Hours ([6]; ANO 15 mg/kg body weight i.v.): 80% | Survival rate (%) of mice, 7 Hours ([6]; ANO 45 mg/kg body weight i.v.): 100% | Survival rate (%) of mice, 19 Hours ([6]; ANO 45 mg/kg body weight i.v.): 100% | Survival rate (%) of mice, 26 Hours ([6]; ANO 45 mg/kg body weight i.v.): 100% | Survival rate (%) of mice, 43 Hours ([6]; ANO 45 mg/kg body weight i.v.): 80%

OC[C@H]1O[C@@H](n2cnc3c(O)ncnc32)[C@H](O)[C@@H]1O [IN, inosine]
body weight of mice applied with the gel [7]: reduction of increasing rate of their body weights
